Laboratory results from PubChem BioAssay AID256 (DTP/NCI, 2004).
Where “and” joins values, the source holds several entries; their conditions need not be identical. Identical values can stand only once. Inconclusive results and toxic doses are left out. How the source made its calls: active means survival T/C of 150% or more; inactive means T/C below 125% in these data.

Tested on: CD2F1 mice, L1210 leukemia ip, survival T/C
Assay: NCI In Vivo Anticancer Drug Screen. Data for tumor model L1210 Leukemia (intraperitoneal) in CD2F1 (CDF1) mice
Conditions: higher = longer survival
Method in brief: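 Each value reflects a quotient of treated over vehicle control outcomes in mice with a transplanted tumor.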

[1] = endpoint: mean survival time, dose: 100.0 mg/kg/injection, schedule: Q04DX003 (ip), vehicle: saline with Tween-80
[2] = endpoint: mean survival time, dose: 200.0 mg/kg/injection, schedule: Q04DX003 (ip), vehicle: saline with Tween-80
[3] = endpoint: mean survival time, dose: 400.0 mg/kg/injection, schedule: Q04DX003 (ip), vehicle: saline with Tween-80
[4] = endpoint: mean survival time, dose: 100.0 mg/kg/injection, schedule: Q01DX009 (ip), vehicle: saline with Tween-80
[5] = endpoint: mean survival time, dose: 200.0 mg/kg/injection, schedule: Q01DX009 (ip), vehicle: saline with Tween-80

Measured: T/C

CC1=NCCCN=C(C)CC[N-]CCC[N-]CC1.[Ni+2].[O-][Cl+3]([O-])([O-])O
inactive: endpoint: mean survival time, dose: 25.0 mg/kg/injection, schedule: Q04DX002 (ip), vehicle: saline with Tween-80 103 % of control | endpoint: mean survival time, dose: 50.0 mg/kg/injection, schedule: Q04DX002 (ip), vehicle: saline with Tween-80 115 % of control | endpoint: mean survival time, dose: 100.0 mg/kg/injection, schedule: Q04DX002 (ip), vehicle: saline with Tween-80 103 % of control | endpoint: mean survival time, dose: 100.0 mg/kg/injection, schedule: Q04DX002 (ip), vehicle: saline 124 % of control

COC(=O)CCNc1ccccc1
inactive: endpoint: mean survival time, dose: 100.0 mg/kg/injection, schedule: Q01DX001 (ip), vehicle: Klucel (hydroxypropylcellulose) (HPC) 101 % of control | [1] 100 % of control | endpoint: mean survival time, dose: 200.0 mg/kg/injection, schedule: Q01DX001 (ip), vehicle: Klucel (hydroxypropylcellulose) (HPC) 101 % of control | [2] 96 % of control | endpoint: mean survival time, dose: 400.0 mg/kg/injection, schedule: Q01DX001 (ip), vehicle: Klucel (hydroxypropylcellulose) (HPC) 96 % of control | [3] 96 % of control

CC(=O)NC1C(OC(C)=O)OC(COC(C)=O)C(OC(C)=O)C1OC(C)=O (centres undefined)
inactive: endpoint: mean survival time, dose: 50.0 mg/kg/injection, schedule: Q01DX001 (ip), vehicle: saline with Tween-80 101 % of control | endpoint: mean survival time, dose: 100.0 mg/kg/injection, schedule: Q01DX001 (ip), vehicle: saline with Tween-80 95 % of control | endpoint: mean survival time, dose: 200.0 mg/kg/injection, schedule: Q01DX001 (ip), vehicle: saline with Tween-80 98 % of control

N#CCSc1ncnc2nc[nH]c12
inactive: endpoint: mean survival time, dose: 15.0 mg/kg/injection, schedule: Q01DX009 (ip), vehicle: saline 95 % of control and 107 % of control | endpoint: mean survival time, dose: 30.0 mg/kg/injection, schedule: Q01DX009 (ip), vehicle: saline 110 % of control and 112 % of control | endpoint: mean survival time, dose: 60.0 mg/kg/injection, schedule: Q01DX009 (ip), vehicle: saline 110 % of control | endpoint: median survival time, dose: 30.0 mg/kg/injection, schedule: Q01DX009 (ip), vehicle: saline 100 % of control | endpoint: median survival time, dose: 60.0 mg/kg/injection, schedule: Q01DX009 (ip), vehicle: saline 122 % of control

O=C(Nc1ccccc1)c1ccccc1C(O)(c1ccccc1)c1ccc(Cl)cc1 (centres undefined)
inactive: [1] 95 % of control | [2] 95 % of control | [3] 97 % of control

Clc1ccc(N=Cc2ccc3c(c2)OCO3)cc1
inactive: endpoint: mean survival time, dose: 100.0 mg/kg/injection, schedule: Q04DX003 (ip), vehicle: other 91 % of control | endpoint: mean survival time, dose: 200.0 mg/kg/injection, schedule: Q04DX003 (ip), vehicle: other 96 % of control | endpoint: mean survival time, dose: 400.0 mg/kg/injection, schedule: Q04DX003 (ip), vehicle: other 100 % of control

Cc1ccc([N+](=O)[O-])cc1NC(=O)Nc1c(C)n(C)n(-c2ccccc2)c1=O
inactive: endpoint: mean survival time, dose: 50.0 mg/kg/injection, schedule: Q01DX009 (ip), vehicle: Klucel (hydroxypropylcellulose) (HPC) 93 % of control | endpoint: mean survival time, dose: 100.0 mg/kg/injection, schedule: Q01DX009 (ip), vehicle: Klucel (hydroxypropylcellulose) (HPC) 89 % of control | endpoint: mean survival time, dose: 200.0 mg/kg/injection, schedule: Q01DX009 (ip), vehicle: Klucel (hydroxypropylcellulose) (HPC) 93 % of control

CN(C)C(C)(C)P(=O)(O)O
inactive: endpoint: mean survival time, dose: 100.0 mg/kg/injection, schedule: Q04DX003 (ip), vehicle: saline 98 % of control | endpoint: mean survival time, dose: 200.0 mg/kg/injection, schedule: Q04DX003 (ip), vehicle: saline 96 % of control | endpoint: mean survival time, dose: 400.0 mg/kg/injection, schedule: Q04DX003 (ip), vehicle: saline 96 % of control

CC(=O)OC1C2C=CC1C1CC21 (centres undefined)
inactive: endpoint: mean survival time, dose: 100.0 mg/kg/injection, schedule: Q01DX001 (ip), vehicle: saline 96 % of control | endpoint: mean survival time, dose: 200.0 mg/kg/injection, schedule: Q01DX001 (ip), vehicle: saline 100 % of control | endpoint: mean survival time, dose: 400.0 mg/kg/injection, schedule: Q01DX001 (ip), vehicle: saline 98 % of control

N#CCCOC1CCCCC1
inactive: [1] 98 % of control | [2] 93 % of control | [3] 93 % of control

c1cc2nc(c1)CSCCCCCCCSC2
inactive: [4] 98 % of control | [5] 90 % of control | endpoint: mean survival time, dose: 400.0 mg/kg/injection, schedule: Q01DX009 (ip), vehicle: saline with Tween-80 93 % of control

CC(C)c1ccc2c(c1)CC[C@H]1[C@](C)(C#N)CCC[C@]21C
inactive: [4] 95 % of control | [5] 94 % of control

CCCCOC(=O)c1ccccc1C(=O)O.CCCCOC(=O)c1ccccc1C(=O)O.[Cu+2]
inactive: endpoint: mean survival time, dose: 6.25 mg/kg/injection, schedule: Q04DX003 (ip), vehicle: saline with Tween-80 91 % of control | endpoint: mean survival time, dose: 12.5 mg/kg/injection, schedule: Q04DX003 (ip), vehicle: saline with Tween-80 95 % of control | endpoint: mean survival time, dose: 25.0 mg/kg/injection, schedule: Q04DX003 (ip), vehicle: saline with Tween-80 93 % of control
